≈ marks a conversion by molar mass, not a printed value. Structures can show the parent of a compound that is named as a salt. Where two headings read alike, the source gives them in different places.

Data set [1] is described as follows: Saturation concentration of gemcitabine in aqueous ethyl alcohol solutions (Example 3). Format: physicochemical. The note with it: interpolation (polynomial of the 6th degree), about 66 percent by volume of ethyl alcohol, pH 10±0.5. As for the experimental part: In order to determine the saturation concentration of gemcitabine in aqueous ethyl alcohol solutions, gemcitabine solutions with various volume percentages of ethyl alcohol were prepared and analyzed.
Gemcitabine hydrochloride was placed beforehand in the mixing vessel, reacted with a stoichiometric amount of alkalizer (1N sodium hydroxide) dissolved in water, then treated each time with 80% of the required amounts of water for injection as determined in preliminary tests as well as with the amounts of ethyl alcohol required each time.
The components contained in the batch were subsequently dissolved at room temperature (19-23° C.) while agitating for 6 hours such that an undissolved sediment of gemcitabine hydrochloride remained in the mixing vessel. The pH of the batch was determined potentiometrically and, when required, adjusted to a pH of 10 with 1N sodium hydroxide or 1N hydrochloric acid, so as to achieve at this pH a complete conversion of the gemcitabine hydrochloride to the dissolved gemcitabine base.
The batch was stored for 24 hours at 19-23° C. […] These batches were then filtered until free of particles, and the gemcitabine content was determined by HPLC.

Data set [2] is described as follows: Maximum solubility of gemcitabine hydrochloride at 66 vol. % ethyl alcohol after dissolving at 35-45° C. (Example 4). Format: physicochemical. As to conditions: dissolved at 35-45° C. for 6 hours, cooled, stored 24 hours at 19-23° C. As for the experimental part: The maximum solubility of gemcitabine hydrochloride was determined with further use of 1N sodium hydroxide, water for injection and absolute ethyl alcohol in a proportion of 66 percent by volume recognized as optimum for that purpose, at increased solution temperatures (35-45° C. for 6 hours under agitation) and subsequent cooling to room temperature (19-23° C.), and then stored for 24 hours at 19-23° C.

For data set [3] the following is noted: cited from earlier work.

In the case of `Nc1ccn([C@@H]2O[C@H](CO)[C@@H](O)C2(F)F)c(=O)n1` [gemcitabine hydrochloride], the maximum gemcitabine solubility in data set [1] (hydrochloride) was 55 mg/mL. The “content in particle-free supernatant (maximum solubility)” value in data set [2] (hydrochloride) amounted to 108.3 mg/mL.
A word on the solubility: it is the concentration that dissolves in the medium under given conditions. As to `Nc1ccn([C@@H]2O[C@H](CO)[C@@H](O)C2(F)F)c(=O)n1` [gemcitabine, 2′-deoxy-2′,2′-difluorocytidine], the solubility in water in data set [3] (pH of 5) is 16.0 mg/mL (≈ 60.8 mM); in data set [3] (pH of 7), 15.3 mg/mL (≈ 58.1 mM); in data set [3] (pH of 9) it was 15.8 mg/mL (≈ 60 mM); in data set [3] (pH range of 2.7 to 3.3), “about 38 mg/ml”. For the same compound, the solubility at 6 h was determined as 50 mg/mL (≈ 190 mM) in data set [1] (aqueous ethyl alcohol solution, 21 °C, pH 10, aqueous with cosolvent or surfactant or cyclodextrin, thermodynamic from solid, read-out: maximum gemcitabine solubility) and 95.1 mg/mL (≈ 361 mM) in data set [2] (aqueous ethyl alcohol solution, aqueous with cosolvent or surfactant or cyclodextrin, thermodynamic from solid, read-out: content in particle-free supernatant (maximum solubility)).
